Source: patent US20080286335A1, “Enhancement Of The Calcium Sensing Receptor” (Smith & Nephew, Inc., priority 2007, published 2008)

Assays:
[1] = system: mouse calvarial cells; test: Alizarin red staining (calcium deposition) of mouse calvarial cell monolayers; assay type: cell-based; details: 2.5 mM amino acid with 2.5 mM CaCl2, 2 week period, compared to 2.5 mM CaCl2 alone, FIG. 1 and 2
Experimental: (§1) Osteoblastic cells were isolated from mouse calvarial tissue dissected from the heads of 2-3 day old freshly slaughtered mice pups using sequential enzymatic digestion. Cells were maintained in DMEM+10% Foetal Bovine Serum (FBS) at 37° C./5% CO2 in order to expand the cells before experimental use. Human dermal fibroblasts (HDFs) were used in experiments as an additional negative control.
(§2) Cells were seeded into 24 well plates at a concentration of 5×10^4 cells/well in αMEM+10% FBS (n=6). Experiments were set up to examine the amount of mineralisation at two different concentrations of calcium chloride (CaCl2) (1.8 mM and 2.5 mM) with and without L-amino acids (L-phenylalanine and L-tryptophan at 2.5 mM). Cells were cultured at 37° C./5% CO2 with media changes three times a week. After 2 weeks and 3 weeks, the monolayers were stained to show the extent of mineralisation using Alizarin red (calcium deposition) and after 4 weeks with Von Kossa (mineralised matrix). Alizarin red stained monolayers were destained and the stain quantified spectophotometrically, whilst the Von Kossa staining was quantified using image analysis.

[2] = system: mouse calvarial cells; test: Von Kossa staining (mineralised matrix) of mouse calvarial cell monolayers; assay type: cell-based; details: compared to 2.5 mM CaCl2 alone
Experimental: as §1
as §2, with “After 2 weeks and 3 weeks, the monolayers were stained to show the extent of mineralisation using Alizarin red (calcium deposition) and after 4 weeks with Von Kossa (mineralised matrix).” left out

Row | SMILES | calcium deposition [1] | amount of mineralised matrix ([2]; 2.5 mM L-Phe with 2.5 mM CaCl2, 2 week period, Von Kossa image analysis, FIG. 4) | amount of mineralised matrix ([2]; 2.5 mM L-Phe with 2.5 mM CaCl2, 4 week period, Von Kossa staining, FIG. 3)
1 | N[C@@H](Cc1c[nH]c2ccccc12)C(=O)O [L-Trp, L-tryptophan] | significantly increases | – | –
2 | N[C@@H](Cc1ccccc1)C(=O)O [L-Phe, L-phenylalanine] | significantly increases | significantly increases | significantly increases
